These are literature values, as cited in patent publication US9861587B2, “Composition and method for treating ketosis in cows” (RP FEED COMPONENTS, LLC, priority 2011, dated 2018).

Series [1] relates to ketotic cows. Particulars: two ketotic cows; daily injections or oral administration of 12.5 g.
Series [2] concerns bovine ketosis. Particulars: oral administration.
For series [3], the system named is cases of clinical ketosis. Particulars: six cases; orally 40 g once daily for seven days; 21-day examination period.

With `CSCCC(N)C(=O)O` (racemic) [DL-methionine], the treatment of ketosis result in series [1] is on record as “unsuccessful treatment”.

In the case of “DL-α-hydroxy-γ-methylmercaptobutyrate calcium [methionine hydroxy analog (MHA)]”, the “symptoms of bovine ketosis” value in series [2] is recorded as “aided in alleviating symptoms of bovine ketosis”. For the same molecule, the serum ketone levels entry in series [3] was “fell slowly over a 21-day examination period, but never returned to normal levels”.
